Counter-ions that a name gives are not always drawn.
How the values were obtained:
[1] = tested on: dog; test: Anorexigenic activity in the dog; assay type: in vivo; details: administered in the first ball, 7 hours
Experimental: The anorexigenic activity was studied on the dog using the method of ADAMS et al [J. Pharm. Sci., Vol. 53 (1964), p. 1405]. On the day of the test of a substance presumed to be anorexigenic, the individual daily ration of the animals was broken down into substantially equal balls (10 to 20 g) which were offered to the dogs every 10 minutes for 7 hours. Normally, the animals regularly accept the successive balls offered to them. Refusal translates the anorexiant effectiveness of the compound studied which was administered in the first ball. The anorexigenic activity was expressed by an increasing number of + signs for a given dose expresses in mg/kg.

[2] = Acute toxicity; details: mouse, in vivo, ip; mice, intraperitoneal, 48 hours after administration
Experimental: The LD50, the dose at which 50% of the mice died after the intraperitoneal administration of the products to mice was determined 48 hours after the administration.

[3] = tested on: mice; test: Anorexigenic activity in mice; assay type: in vivo; details: 20 mg/kg i.p., food intake over following 24 hours
Experimental: The anorexigenic activity was studied with mice and the animals receive the product studied intraperitoneally 30 minutes before the start of the test. The quantities of nourishment absorbed in the course of the following 24 hours was noted and compared with the quantity of nourishment absorbed in the course of the same period by animals not receiving the product studied. The anorexigenic activity was expressed by an increasing number of + signs for a given dose expressed in mg/kg.

[4] = tested on: catalepsy provoked by prochlorpemazine; test: Antagonism of catalepsy provoked by prochlorpemazine; assay type: in vivo; set-up: key to Antagonism of catalepsy provoked by prochloropemazine for a determined dose in mg/kg: evaluated at the height of the effect was expressed by an increasing number of + signs for a given dose; ++: evaluated at the height of the effect was expressed by an increasing number of + signs for a given dose; +++: evaluated at the height of the effect was expressed by an increasing number of + signs for a given dose; details: rats; for Antagonism of catalepsy provoked by prochloropemazine for a determined dose in mg/kg: prochlorpemazine 15 mg/kg i.p.; for antagonism toward the cataleptigenic activity of prochlorpemazine: in words, i.p.
Experimental: The tests are carried out on groups of 5 young rats weighing about 100 g and the cataleptigenic agent used is prochlorpemazine at a dose of 15 mg/kg intraperitoneally. The product studied was administered simultaneously in the same way. The intensity of the catalepsy was evaluated by the test of crossing of the homolateral paws [BOISSIER et al, Therapie, Vol. 18 (1963), p. 1257] every hour for 7 hours. The rating adopted is the following: the animal refuses the crossing of the front paws with the homolateral rear paws (0), he retains the desired crossing on one side only (0.5), he accepts the crossing on both sides (1). The sum of the scores by groups read at different periods after the administration of the product studied is determined. The antagonism of catalepsy provoked by prochlorpemazine evaluated at the height of the effect was expressed by an increasing number of + signs for a given dose and the results are reported in Table II.

[5] = tested on: rigidity provoked by reserpine; test: Antagonism with respect to reserpinic rigidity; assay type: in vivo; set-up: key to Antagonism to reserpinic rigidity for a determined dose in mg/kg: ++: It was expressed by an increasing number of + signs for a given dose expressed in mg/kg; details: rat; for Antagonism to reserpinic rigidity for a determined dose in mg/kg: reserpine 10 mg/kg i.v., E.M.G.
Experimental: The antagonism of the compounds with respect to reserpinic rigidity [Jurna I: Arch. Pharmak. Exp. Path. Vol. 260 (1968), p. 80-88] was studied on the rat. The tests consisted of recording, by means of electrodes placed on the muscles of the anterior cavity of one of the rear paws of the animal, the electromyogram (E.M.G.) provoked by a dorsiflection of the instep. A dose of 10 mg/kg of reserpine was administered intraveneously, then, one half hour later when the hypertonicity of the muscle was maximal, the product to be studied was administered in the same way at a dose of 10 mg/kg or of 20 mg/kg.
The electromyographic responses obtained before and after treatment, were compared in intensity and in time. The inhibition observed on the electromyogram expressed the antagonism exercised by the product with respect to the rigidity provoked by reserpine. It was expressed by an increasing number of + signs for a given dose expressed in mg/kg.

[6] = tested on: stereotypies provoked by dexamphetamine; test: Potentiation of stereotypies provoked by dexamphetamine; assay type: in vivo; set-up: Potentiation of stereotypies provoked by dexamphetamine for a determined dose in mg/kg: key to the marks not given beside the values; details: rats; for Potentiation of stereotypies provoked by dexamphetamine for a determined dose in mg/kg: dexamphetamine sulfate 3 mg/kg i.p.
Experimental: Each animal was placed individually in a grilled cage (29×25 ×17 cm) containing a few wood shavings. A does of 3 mg/kg of dexamphetamine sulfate was injected intraperitoneally one half hour after the intraperitoneal administration of the product studied. The behavior of the animals was noted every half hour for 5 hours with the rating recommended by […] et al [Brit. J. Pharmacol., Vol. 23 (1964), p. 330-350]. The animalis asleep (0), he is awake but immobile (1), he is turning in his cage (2), he is sniffing the lid (3), he is licking the sides (4), he is touching the shavings or the bars of the cage with his teeth (5), he is biting the chips or bars of the cage (6). The total of the scores per group at different periods after the administration of the product studied was determined and the potentiation of the stereotypies evaluated at the height of the effect is expressed by an increasing number of + signs for a given dose.

Row | SMILES | anorexigenic activity ([1]; 20 mg/kg) | LD50 at 48 h [2] [mg/kg] | anorexigenic activity [3] | Antagonism of catalepsy provoked by prochloropemazine for a determined dose in mg/kg ([4]; 20 mg/kg i.p.) | antagonism toward the cataleptigenic activity of prochlorpemazine [4] | Antagonism to reserpinic rigidity for a determined dose in mg/kg ([5]; 20 mg/kg i.v.) | Potentiation of stereotypies provoked by dexamphetamine for a determined dose in mg/kg ([6]; 2 mg/kg i.p.) | anorexigenic activity ([1]; 25 mg/kg) | Antagonism of catalepsy provoked by prochloropemazine for a determined dose in mg/kg ([4]; 50 mg/kg i.p.) | Antagonism to reserpinic rigidity for a determined dose in mg/kg ([5]; 10 mg/kg i.v.) | Antagonism to reserpinic rigidity ([5]; in words, i.v.) | Potentiation of stereotypies provoked by dexamphetamine for a determined dose in mg/kg ([6]; 0.2 mg/kg i.p.) | activity of potentiation of stereotypies provoked by dexamphetamine ([6]; in words, i.p.) | Potentiation of stereotypies provoked by dexamphetamine for a determined dose in mg/kg ([6]; 20 mg/kg i.p.)
1 | Cl.FC(F)(F)c1cccc(C2CCCNC2)c1 (stereo not drawn) [Example 1, 3-(m-trifluoromethylphenyl)-piperidine hydrochloride] | + | ~150 | + | ++ | substantial antagonism | ++ |  |  |  |  |  |  |  | 
2 | CN1CCCC(c2cccc(C(F)(F)F)c2)C1.Cl (stereo not drawn) [Example 3, N-methyl-3-(m-trifluoromethylphenyl)-piperidine hydrochloride] |  | ~100 |  | + |  | ++ | ++ |  |  |  |  |  |  | 
3 | CC(C)N1CCCC(c2cccc(C(F)(F)F)c2)C1.Cl (stereo not drawn) [Example 4, N-isopropyl-3-(m-trifluoromethylphenyl)-piperidine hydrochloride] |  | ~100 | + |  | substantial antagonism |  |  | + | +++ | ++ | very high activity | +++ | very high activity | 
4 | FC(F)(F)c1cccc(C2CCCN(Cc3ccccc3)C2)c1 (stereo not drawn) [Example 6, N-benzyl-3-(m-trifluoromethylphenyl)-piperidine hydrochloride] |  | ~150 |  |  |  |  |  |  |  |  |  |  |  | ++

Reference: patent US4259337A, “Method for using m-trifluoromethylphenyl-piperidines” (Roussel Uclaf, priority 1976, dated 1981)
